Test results from paper PMC10959927, “Platinum iodido drugs show potential anti-tumor activity, affecting cancer cell metabolism and inducing ROS and senescence in gastrointestinal cancer cells” (Communications Biology, 2024).
Where “and” joins values, the source holds several entries; their conditions need not be identical. Identical values can stand only once.

Experiments:
Format in all cases: cell-based, human
MKN45 cells [1] = assay: Seahorse XF OCR, ECAR and energy map; parameters: Basal resp. / Maximal resp. / SRC: unit not given here; conditions: MKN45, IC50 24 h
Procedure: (§1) Oxygen Consumption Rate (OCR), Extra Cellular Acidification Rate (ECAR) and Energy map measurements. Cells were plated in XF HS Miniplates (Seahorse Bioscience) at a cellular density of 1 × 10^4 cells/well and incubated overnight. […] After an OCR baseline measurement, the minimum oxygen consumption was determined by adding 1.5 µM oligomycin (O) and the maximal respiration rate was assessed by adding 1 µM carbonyl cyanide p-trifluoro methoxyphenylhydrazone (FCCP, F). At the end of the experiment, the non-mitochondrial oxygen consumption was evaluated by adding both 0.5 µM rotenone (R) and antimycin (A). Experiments were run in a XF HS Mini analyzer (Seahorse Agilent), and raw data were normalized to total protein using a BCA protein assay kit (Cat. no. 23225, Thermo Scientific).

AGS cells [2] = assay: Lactate production assay; conditions: replicates
Procedure: (§2) Lactate production assay. […] Proteins were removed from 50 μL of the medium by adding 100 μL of 8% Percloric Acid and 40% EtOH at 4 °C, and centrifuging at 2 × 10^4 g for 10 min at 4 °C. The supernatants were then frozen until the lactate in 15 μL of each sample, or lactate standard, was measured mixed with 150 μl of assay buffer (0.5 M glycine [pH 9.5], 0.2 M Hydrazine, 3.4 mM EDTA), 100 μl of H20, 5 μL of 1100 U/mL LDH (Roche) and 30 μL of 15 mM NAD + . NADH production was evaluated by measuring absorbance at 340 nm in a multiplate reader (Synergy HT, Biotek) and it was proportional to the lactic acid concentration in the sample after a 2 h incubation. The lactate concentration was normalized to the total amount of protein measured with the Micro BCA Protein Assay Kit (Thermo Scientific). Assays were performed in triplicate in three independent experiments.

PANC1 cells = assay: Lactate production assay; conditions: replicates
Procedure: as §2

MKN45 cells [3] = assay: Lactate production assay; conditions: replicates
Procedure: as §2

AGS cells [4] = assay: Seahorse XF OCR, ECAR and energy map
Procedure: as §1

SMILES: CC(C)[NH][Pt@SP1]([I])([I])[NH]C(C)C [I6, cis-[PtI2(isopropylamine)2]]
- ATP-product. coupled resp. (MKN45 cells [1]): 104.06 and 161.5 and 167.13
- Basal resp. (MKN45 cells [1]): 127.94 and 199.95 and 209.1
- Maximal resp. (MKN45 cells [1]): 239.39 and 365.62 and 377.71
- SRC (MKN45 cells [1]): 111.45 and 165.66 and 168.61
- effect on ECAR (MKN45 cells [1]): no apparent effect
- OCR (MKN45 cells [1]; time 1.53 min (I5) / 1.53 min (I6)): 147.857 pmoles/min/µg protein and 218.375 pmoles/min/µg protein and 227.071 pmoles/min/µg protein
- OCR (MKN45 cells [1]; time 8.04 min (I5) / 8.03 min (I6)): 138.707 pmoles/min/µg protein and 201.479 pmoles/min/µg protein and 205.427 pmoles/min/µg protein
- OCR (MKN45 cells [1]; time 14.51 min (I5) / 14.5 min (I6)): 135.932 pmoles/min/µg protein and 195.066 pmoles/min/µg protein and 199.064 pmoles/min/µg protein
- OCR (MKN45 cells [1]; time 21.06 min (I5) / 21.09 min (I6)): 69.6082 pmoles/min/µg protein and 82.0209 pmoles/min/µg protein and 78.1047 pmoles/min/µg protein
- OCR (MKN45 cells [1]; time 27.57 min (I5) / 27.59 min (I6)): 57.4221 pmoles/min/µg protein and 74.9291 pmoles/min/µg protein and 73.3602 pmoles/min/µg protein
- OCR (MKN45 cells [1]; time 34.08 min (I5) / 34.07 min (I6)): 57.8854 pmoles/min/µg protein and 73.9423 pmoles/min/µg protein and 73.7207 pmoles/min/µg protein
- OCR (MKN45 cells [1]; time 40.66 min (I5) / 40.62 min (I6)): 219.523 pmoles/min/µg protein and 319.315 pmoles/min/µg protein and 325.525 pmoles/min/µg protein
- OCR (MKN45 cells [1]; time 53.68 min (I5) / 53.58 min (I6)): 193.975 pmoles/min/µg protein and 265.77 pmoles/min/µg protein and 274.483 pmoles/min/µg protein
- OCR (MKN45 cells [1]; time 60.27 min (I5) / 60.14 min (I6)): 39.9791 pmoles/min/µg protein and 45.1028 pmoles/min/µg protein and 42.2414 pmoles/min/µg protein
- OCR (MKN45 cells [1]; time 66.75 min (I5) / 66.62 min (I6)): 39.1246 pmoles/min/µg protein and 45.4375 pmoles/min/µg protein and 44.5027 pmoles/min/µg protein
- OCR (MKN45 cells [1]; time 73.23 min (I5) / 73.1 min (I6)): 38.1003 pmoles/min/µg protein and 46.0211 pmoles/min/µg protein and 46.1344 pmoles/min/µg protein
- lactate assay (AGS cells [2]): 3.22 Lactate mM/mg prot and 1.52 Lactate mM/mg prot and 3.74 Lactate mM/mg prot and 3.2668 Lactate mM/mg prot and 2.67 Lactate mM/mg prot and 5.511 Lactate mM/mg prot and 0.01 Lactate mM/mg prot and 0.02 Lactate mM/mg prot and 0.03 Lactate mM/mg prot
- lactate assay (PANC1 cells): 11.33 Lactate mM/mg prot and 12.9 Lactate mM/mg prot and 10.14 Lactate mM/mg prot and 5.296 Lactate mM/mg prot and 5.829 Lactate mM/mg prot and 4.94 Lactate mM/mg prot and 4.32 Lactate mM/mg prot and 4.21 Lactate mM/mg prot and 4.26 Lactate mM/mg prot
- lactate assay (MKN45 cells [3]): 3.98 Lactate mM/mg prot and 8.05 Lactate mM/mg prot and 7.53 Lactate mM/mg prot and 3.819 Lactate mM/mg prot and 1.91 Lactate mM/mg prot and 4.092 Lactate mM/mg prot and 2.56 Lactate mM/mg prot and 2.5 Lactate mM/mg prot and 2.54 Lactate mM/mg prot
- ECAR, Mean (energy map) (AGS cells [4]; AGS (with I5)): 23.74 mpH/min/absorbance
- OCR, Mean (energy map) (AGS cells [4]; AGS (with I5)): 42.84 pmol/min/absorbance
- ECAR (energy map) (AGS cells [4]; AGS (with I6)): 45.46 mpH/min/absorbance
- ECAR, Mean (energy map) (AGS cells [4]; AGS (with I6)): 48.0093 mpH/min/absorbance
- OCR (energy map) (AGS cells [4]; AGS (with I6)): 48.01 pmol/min/absorbance
- OCR, Mean (energy map) (AGS cells [4]; AGS (with I6)): 45.4641 pmol/min/absorbance
- effect on ECAR (AGS cells [4]; AGS, IC50 24 h): no apparent effect
- OCR (AGS cells [4]; AGS, IC50 24 h, time 1.53 min (I5) / 1.53 min (I6)): 30.1319 pmoles/min/µg protein and 31.3797 pmoles/min/µg protein and 53.7109 pmoles/min/µg protein
- OCR (AGS cells [4]; AGS, IC50 24 h, time 8.04 min (I5) / 8.02 min (I6)): 24.9329 pmoles/min/µg protein and 27.5046 pmoles/min/µg protein and 48.0298 pmoles/min/µg protein
- OCR (AGS cells [4]; AGS, IC50 24 h, time 14.54 min (I5) / 14.51 min (I6)): 26.4797 pmoles/min/µg protein and 27.4562 pmoles/min/µg protein and 48.9415 pmoles/min/µg protein
- OCR (AGS cells [4]; AGS, IC50 24 h, time 21.13 min (I5) / 21.08 min (I6)): 22.9934 pmoles/min/µg protein and 21.9038 pmoles/min/µg protein and 30.7096 pmoles/min/µg protein
- OCR (AGS cells [4]; AGS, IC50 24 h, time 27.59 min (I5) / 27.57 min (I6)): 20.5189 pmoles/min/µg protein and 20.6073 pmoles/min/µg protein and 30.1901 pmoles/min/µg protein
- OCR (AGS cells [4]; AGS, IC50 24 h, time 34.07 min (I5) / 34.06 min (I6)): 21.4481 pmoles/min/µg protein and 20.5528 pmoles/min/µg protein and 31.2982 pmoles/min/µg protein
- OCR (AGS cells [4]; AGS, IC50 24 h, time 60.15 min (I5) / 60.16 min (I6)): 12.0701 pmoles/min/µg protein and 11.1961 pmoles/min/µg protein and 18.1823 pmoles/min/µg protein
- OCR (AGS cells [4]; AGS, IC50 24 h, time 66.63 min (I5) / 66.65 min (I6)): 12.0579 pmoles/min/µg protein and 11.0677 pmoles/min/µg protein and 17.3668 pmoles/min/µg protein
- OCR (AGS cells [4]; AGS, IC50 24 h, time 73.12 min (I5) / 73.14 min (I6)): 11.7846 pmoles/min/µg protein and 9.533 pmoles/min/µg protein and 17.3382 pmoles/min/µg protein
